Assay results: patent US12371453B2, “Polypeptide having antibacterial activity, composition for preventing or treating sepsis comprising same, and antibacterial composition” (priority 2019, dated 2025)
Square brackets hold non-standard residues; d marks the D form. Peptide text beside a SMILES is read from it.

How the values were obtained:
[1] = tested on: Carbapenem resistant (CR)-Acinetobactor baumannii; test: organism not typed
Procedure: (§1) The antibacterial activity was evaluated according to an antibacterial activity test method for measuring the minimum inhibitory concentration 50 (MIC50; the minimal concentration that kills 50% of bacteria).
(§2) More specifically, 100 μL of a medium was dispensed into each well of a 96-well plate, and in the first column, an antibiotic and a peptide in 200 μL of the medium were dispensed. 1/2 serial dilution was performed from columns 1 to 11 and five types of antibiotic-resistant bacteria (ESBL-resistant E. coli, carbapenem-resistant A. baumannii, carbapenem-resistant Klebsiella pneumoniae, carbapenem-resistant Pseudomonas aeruginosa, colistin-resistant Acinetobactor baumannii), which had been previously cultured, were diluted (OD600 nm value in dilution: approximately 0.0025) and dispensed into each well. The plate was incubated in a 37° C. incubator for 4 hours, and measured at OD600 nm.

ESBL (E. coli) = settings: ESBL
Procedure: as §1, §2

[2] = tested on: Colistin resistant AB (Acinetobactor baumannii)
Procedure: as §1, §2

CR-Klebsiella pneumoniae = settings: CR-
Procedure: as §1, §2

[3] = In vivo toxicity, survival rate (Example 9); set-up: species or system ICR mice; settings: mouse, ip, mice, intraperitoneal six times, survival for 72 hours
Procedure: To confirm the therapeutic and pharmaceutical effects of an acetate salt substitution of allD FP13-NH2, a septic animal model induced by intraperitoneally administering each of the Escherichia coli (standard strain and ESBL) strains or a normal mouse was treated with the peptide allD FP13-NH2 (AcOH). The antibiotic effect, the toxicity, and the inhibitory activity of […] cytokine IL-6 of the salt substitution with those of the same peptide at the end of trifluoroacetic acid (TFA) were compared.
Six-week-old female ICR mice (SPF mice, Samtako) with an average body weight of 25 g were used as experimental animals. The experimental animals were provided with sterile feed and water and bred with less than 10 mice per cage, and a day/night cycle was 12 hours.
To evaluate in vivo toxicity, the mice were divided into groups (n=5 or 6 per group) per experiment, and intraperitoneally treated six times with allD FP13-NH2 (TFA) and allD FP13-NH2 (AcOH) mixed with […]'S DEX solution (vehicle) at 0, 1, 2, 3, 4, or 5 hours, followed by observing a survival rate at intervals of 12 hours for 72 hours.

For `CC(C)C[C@@H](NC(=O)[C@H](N)CCCCN)C(=O)N[C@H](CCCNC(=N)N)C(=O)N[C@@H](C(=O)N[C@H](CCCCN)C(=O)N[C@H](CC(C)C)C(=O)N[C@H](CCCNC(=N)N)C(=O)N[C@H](CCCNC(=N)N)C(=O)N[C@H](Cc1ccc(O)cc1)C(=O)N[C@H](CC(C)C)C(=O)N[C@H](CCCNC(=N)N)C(N)=O)C(C)C` [allD FP13-NH2 (AcOH)] (H-[dK][dL][dR][dV][dK][dL][dR][dR][dY][dL][dR]-NH2; N-terminus assumed), the “MIC50, Carbapenem resistant (CR)-Acinetobactor baumannii” value [1] was less than 1 µg/mL, the “MIC50, ESBL (E. coli)” value (ESBL (E. coli)) was less than 1 µg/mL and the “MIC50, Colistin resistant AB” value [2] was less than 16 µg/mL. The “MIC50, CR-Klebsiella pneumoniae” value (CR-Klebsiella pneumoniae) was less than 32 µg/mL and the LD50 [3] was 80 mg/kg.
